Test results as given in ChEMBL document CHEMBL1148876 (Bioorg Med Chem Lett, 2007).
Activity calls are given as the source filed them. The calls are words filed in the database; no cut-off is given here.

How the values were obtained:
[1] = Apparent permeability from apical to basolateral side in MDR-MDCK cells overexpressing human p-glycoprotein at 5 uM after 120 mins; assay type: ADME, cell-based; details: MDCK-MDR1
[2] = Apparent permeability from basolateral to apical side in MDR-MDCK cells overexpressing human p-glycoprotein at 5 uM after 120 mins; assay type: ADME, cell-based; details: MDCK-MDR1
HEK293 = experiment: Cytotoxicity against HEK293 cells; assay type: functional, cell-based; details: Homo sapiens
Tubulin (Homo sapiens) = Tubulin (Homo sapiens) (UniProt P68371+Q9H4B7+P0DPH7+P68366+Q13509+Q71U36+P04350+Q3ZCM7+P07437+P68363+Q9BQE3+Q6PEY2+Q13885+Q9BVA1+Q9BUF5); experiment: Effect on tubulin polymerization by microtubule polymerization assay; assay type: protein-complex assay
MDCK = experiment: (§1) Ratio of permeability from basolateral to apical over apical to basolateral side of the MDR-MDCK cells at 5 uM after 120 mins; assay type: ADME, cell-based; details: human, mdck, 2 h, 5 µM
[3] = as §1; assay type: ADME, cell-based; details: human, MDCK-MDR1
[4] = Stability assessed as half life in PBS buffer; assay type: physicochemical
[5] = Stability in PBS assessed as percentage of remaining compound after 24 hrs; assay type: physicochemical; details: read-out: Activity
[6] = Stability assessed as half life in mouse plasma; assay type: ADME, cell-free
Homo sapiens = organism: Homo sapiens; experiment: Stability assessed as half life in human plasma

Papp A→B at 2 h, 5 µM [1] | Papp B→A at 2 h, 5 µM [2] | Activity (Tubulin (Homo sapiens)) | Ratio (MDCK) | efflux ratio at 2 h, 5 µM [3] | half-life [4] | remaining at 24 h [5] | half-life [6] | half-life (Homo sapiens) | Structure (SMILES) | IC50 (HEK293)
< 0.06 ×10⁻⁶ cm/s | < 0.06 ×10⁻⁶ cm/s | – | – | – | – | – | – | – | CC(=O)O[C@@]12CO[C@@H]1C[C@H](O)[C@@]1(C)C(=O)[C@H](OC(=O)N[C@@H](C)C(=O)O)C3=C(C)[C@@H](OC(=O)[C@H](O)[C@@H](NC(=O)c4ccccc4)c4ccccc4)C[C@@](O)([C@@H](OC(=O)c4ccccc4)[C@H]21)C3(C)C | 3.9 µM
< 0.63 ×10⁻⁶ cm/s | < 0.63 ×10⁻⁶ cm/s | – | – | – | – | – | – | – | CC(=O)O[C@@]12CO[C@@H]1C[C@H](O)[C@@]1(C)C(=O)[C@H](OC(=O)N[C@H](C)C(=O)O)C3=C(C)[C@@H](OC(=O)[C@H](O)[C@@H](NC(=O)c4ccccc4)c4ccccc4)C[C@@](O)([C@@H](OC(=O)c4ccccc4)[C@H]21)C3(C)C | 2.5 µM
0.17 ×10⁻⁶ cm/s | 22.6 ×10⁻⁶ cm/s | – | – | 133 | – | – | – | – | CC(=O)O[C@@]12CO[C@@H]1C[C@H](O)[C@@]1(C)C(=O)[C@H](OC(=O)N3CCOCC3)C3=C(C)[C@@H](OC(=O)[C@H](O)[C@@H](NC(=O)c4ccccc4)c4ccccc4)C[C@@](O)([C@@H](OC(=O)c4ccccc4)[C@H]21)C3(C)C | –
0.2 ×10⁻⁶ cm/s | 28.5 ×10⁻⁶ cm/s | inactive | – | – | > 60 h | 85.2% | 30.1 h | – | CC(=O)O[C@H]1C(=O)[C@@]2(C)[C@H]([C@H](OC(=O)c3ccccc3)[C@]3(O)C[C@H](OC(=O)[C@H](O)[C@@H](NC(=O)c4ccccc4)c4ccccc4)C(C)=C1C3(C)C)[C@]1(OC(C)=O)CO[C@@H]1C[C@@H]2O [PACLITAXEL] | 0.01 µM
< 0.2 ×10⁻⁶ cm/s | < 0.2 ×10⁻⁶ cm/s | – | – | – | – | – | – | – | CC(=O)O[C@@]12CO[C@@H]1C[C@H](O)[C@@]1(C)C(=O)[C@H](OC(=O)NCC(=O)O)C3=C(C)[C@@H](OC(=O)[C@H](O)[C@@H](NC(=O)OC(C)(C)C)c4ccccc4)C[C@@](O)([C@@H](OC(=O)c4ccccc4)[C@H]21)C3(C)C | 1.7 µM
0.05 ×10⁻⁶ cm/s | 0.05 ×10⁻⁶ cm/s | – | 1 | – | – | – | – | – | CC(=O)O[C@@]12CO[C@@H]1C[C@H](O)[C@@]1(C)C(=O)[C@H](OC(=O)N(C)C(C)(C)C(=O)O)C3=C(C)[C@@H](OC(=O)[C@H](O)[C@@H](NC(=O)c4ccccc4)c4ccccc4)C[C@@](O)([C@@H](OC(=O)c4ccccc4)[C@H]21)C3(C)C | 1 µM
0.06 ×10⁻⁶ cm/s | 0.05 ×10⁻⁶ cm/s | – | 0.9 | – | – | – | – | – | CC(=O)O[C@@]12CO[C@@H]1C[C@H](O)[C@@]1(C)C(=O)[C@H](OC(=O)N(C)CC(=O)O)C3=C(C)[C@@H](OC(=O)[C@H](O)[C@@H](NC(=O)c4ccccc4)c4ccccc4)C[C@@](O)([C@@H](OC(=O)c4ccccc4)[C@H]21)C3(C)C | 1.8 µM
0.08 ×10⁻⁶ cm/s | 0.1 ×10⁻⁶ cm/s | – | 1.3 | – | > 60 h | 75.1% | 19.5 h | 15.3 h | CC(=O)O[C@@]12CO[C@@H]1C[C@H](O)[C@@]1(C)C(=O)[C@H](OC(=O)CCC(=O)O)C3=C(C)[C@@H](OC(=O)[C@H](O)[C@@H](NC(=O)c4ccccc4)c4ccccc4)C[C@@](O)([C@@H](OC(=O)c4ccccc4)[C@H]21)C3(C)C | 4.7 µM

Second part, the molecule before the results:

Structure (SMILES) | Papp A→B at 2 h, 5 µM [1] | Papp B→A at 2 h, 5 µM [2] | Activity (Tubulin (Homo sapiens)) | Ratio (MDCK) | efflux ratio at 2 h, 5 µM [3] | half-life [4] | remaining at 24 h [5] | half-life [6] | half-life (Homo sapiens) | IC50 (HEK293)
CC(=O)O[C@@]12CO[C@@H]1C[C@H](O)[C@@]1(C)C(=O)[C@H](O)C3=C(C)[C@@H](OC(=O)[C@H](O)[C@@H](NC(=O)OC(C)(C)C)c4ccccc4)C[C@@](O)([C@@H](OC(=O)c4ccccc4)[C@H]21)C3(C)C.O.O.O [DOCETAXEL] | < 0.62 ×10⁻⁶ cm/s | 15.5 ×10⁻⁶ cm/s | inactive | > 25 | – | – | – | – | – | 0.027 µM
CC(=O)O[C@@]12CO[C@@H]1C[C@H](O)[C@@]1(C)C(=O)[C@H](O)C3=C(C)[C@@H](OC(=O)[C@H](O)[C@@H](NC(=O)c4ccccc4)c4ccccc4)C[C@@](O)([C@@H](OC(=O)c4ccccc4)[C@H]21)C3(C)C | 0.13 ×10⁻⁶ cm/s | 5.17 ×10⁻⁶ cm/s | – | – | 39 | – | – | – | – | 0.076 µM
CC(=O)O[C@@]12CO[C@@H]1C[C@H](O)[C@@]1(C)C(=O)[C@H](OC(=O)NCC(=O)N(C)C)C3=C(C)[C@@H](OC(=O)[C@H](O)[C@@H](NC(=O)c4ccccc4)c4ccccc4)C[C@@](O)([C@@H](OC(=O)c4ccccc4)[C@H]21)C3(C)C | 0.09 ×10⁻⁶ cm/s | 0.8 ×10⁻⁶ cm/s | – | – | 8.8 | – | – | – | – | 1 µM
CC(=O)O[C@@]12CO[C@@H]1C[C@H](O)[C@@]1(C)C(=O)[C@H](OC(=O)NCCO)C3=C(C)[C@@H](OC(=O)[C@H](O)[C@@H](NC(=O)c4ccccc4)c4ccccc4)C[C@@](O)([C@@H](OC(=O)c4ccccc4)[C@H]21)C3(C)C | < 0.21 ×10⁻⁶ cm/s | < 0.21 ×10⁻⁶ cm/s | – | – | – | – | – | – | – | 0.7 µM
COC(=O)CNC(=O)O[C@H]1C(=O)[C@@]2(C)[C@H]([C@H](OC(=O)c3ccccc3)[C@]3(O)C[C@H](OC(=O)[C@H](O)[C@@H](NC(=O)c4ccccc4)c4ccccc4)C(C)=C1C3(C)C)[C@]1(OC(C)=O)CO[C@@H]1C[C@@H]2O | < 0.62 ×10⁻⁶ cm/s | 3.36 ×10⁻⁶ cm/s | – | > 5.4 | – | – | – | – | – | 0.06 µM
CC(=O)O[C@@]12CO[C@@H]1C[C@H](O)[C@@]1(C)C(=O)[C@H](OC(=O)N(C)[C@H](C)[C@H](O)c3ccccc3)C3=C(C)[C@@H](OC(=O)[C@H](O)[C@@H](NC(=O)c4ccccc4)c4ccccc4)C[C@@](O)([C@@H](OC(=O)c4ccccc4)[C@H]21)C3(C)C | < 0.2 ×10⁻⁶ cm/s | 25.3 ×10⁻⁶ cm/s | – | > 127 | – | – | – | – | – | 0.024 µM
CC(=O)O[C@@]12CO[C@@H]1C[C@H](O)[C@@]1(C)C(=O)[C@H](OC(=O)N[C@H]3CCOC3=O)C3=C(C)[C@@H](OC(=O)[C@H](O)[C@@H](NC(=O)c4ccccc4)c4ccccc4)C[C@@](O)([C@@H](OC(=O)c4ccccc4)[C@H]21)C3(C)C | < 0.07 ×10⁻⁶ cm/s | 0.21 ×10⁻⁶ cm/s | – | > 3 | – | – | – | – | – | 1.9 µM
CC(=O)O[C@@]12CO[C@@H]1C[C@H](O)[C@@]1(C)C(=O)[C@H](OC(=O)NCCC(=O)O)C3=C(C)[C@@H](OC(=O)[C@H](O)[C@@H](NC(=O)c4ccccc4)c4ccccc4)C[C@@](O)([C@@H](OC(=O)c4ccccc4)[C@H]21)C3(C)C | < 0.64 ×10⁻⁶ cm/s | < 0.64 ×10⁻⁶ cm/s | – | – | – | – | – | – | – | 7.4 µM
CC(=O)O[C@H]1C(=O)[C@]2(C)[C@@H](OC(=O)NCC(=O)O)C[C@H]3OC[C@@]3(OC(C)=O)[C@H]2[C@H](OC(=O)c2ccccc2)[C@]2(O)C[C@H](OC(=O)[C@H](O)[C@@H](NC(=O)c3ccccc3)c3ccccc3)C(C)=C1C2(C)C | 0.07 ×10⁻⁶ cm/s | 0.06 ×10⁻⁶ cm/s | – | 0.9 | – | – | – | – | – | > 25 µM
CC(=O)O[C@@]12CO[C@@H]1C[C@H](O)[C@@]1(C)C(=O)[C@H](OC(=O)NCC(=O)O)C3=C(C)[C@@H](OC(=O)[C@H](O)[C@@H](NC(=O)c4ccccc4)c4ccccc4)C[C@@](O)([C@@H](OC(=O)c4ccccc4)[C@H]21)C3(C)C | 0.09 ×10⁻⁶ cm/s | 0.05 ×10⁻⁶ cm/s | – | – | 0.6 | > 60 h | 91.6% | 31.3 h | 52 h | 8.3 µM
